Source: US6344564B1, “Fungicidal 2-imidazolin-5-ones and 2-imidazoline-5-thiones” (priority 1992, dated 2002)

What was measured:
Phytophthora infestans = format: in vivo; conditions: concentration at which 75% inhibition of the disease is observed; tomato seedlings (Marmande) sprayed 24 hours before infection with Phytophthora infestans spores; read seven days after infecting vs controls
[1] = test system: Helminthosporium gramineum; assay: In vitro test on PDA medium, Helminthosporium gramineum; format: cell-based; conditions: 120 h, dose of 20 ppm in PDA medium, 5 days at 20° C., compared with control dish, read-out: degree of inhibition of the fungus
Pythium vexans = assay: In vitro test on PDA medium, Pythium vexans; conditions: Phytopythium vexans, 120 h, read-out: degree of inhibition of the fungus
Description: (§1) Each test is carried out in the following way: a nutrient medium consisting of potato, glucose and gelose (PDA medium) is introduced in the supercooled state into a series of Petri dishes (100 ml per dish) after sterilization in an autoclave at 120° C.
(§2) While filling the dishes, an acetone solution of the active material is injected into the supercooled medium to obtain the desired final concentration.
(§3) After 24 hours, each dish is cultured by depositing a fragment of ground mycelium arising from a previous culture of the same fungus.
(§4) For each compound tested, the degree of inhibition of the fungus studied is thus determined for a dose of 20 ppm.

Pythium rostratum = assay: In vitro test on PDA medium, Pythium rostratum; conditions: Globisporangium rostratum, 120 h, read-out: degree of inhibition of the fungus
Description: as §1, §2, §3, §4

Alternaria alternata = assay: In vitro test on PDA medium, Alternaria alternata; conditions: 120 h, read-out: degree of inhibition of the fungus
Description: as §1, §2, §3, §4

Plasmopara viticola = assay: In vivo test on Plasmopara viticola (grape downy mildew); conditions: in Vitis vinifera, 168 h, read-out: protection
Puccinia recondita = assay: In vivo test on Puccinia recondita (brown rust of wheat); conditions: read-out: protection

| SMILES | melting point [°C] | IC75 (ppm) (Phytophthora infestans) | also measured |
| --- | --- | --- | --- |
| CSC1=NC2(CCCc3ccccc32)C(=O)N1Nc1ccc(Cl)cc1 (stereo not drawn) | 191 | – | – |
| CSC1=NC2(CCCc3ccccc32)C(=O)N1Nc1ccccc1C (stereo not drawn) | 174 | – | – |
| CSC1=NC(c2ccccc2)C(=O)N1Nc1ccccc1 (stereo not drawn) | 190 | – | – |
| CSC1=NC(C)(c2cccnc2)C(=O)N1Nc1ccccc1 (stereo not drawn) | 156 | – | – |
| CSC1=NC(C)(Cc2ccccc2)C(=O)N1Nc1ccccc1 (stereo not drawn) | 166 | – | – |
| CSC1=NC(C)(c2ccccc2)C(=O)N1Nc1ccccc1 (racemic) [501 + 502] | – | 110 ppm | – |
| COC1=NC(C)(c2ccccc2)C(=O)N1Nc1ccccc1 (racemic) [503 + 504] | – | 330 ppm | – |
| COC1=NC(C)(c2ccc(Br)cc2)C(=O)N1Nc1ccccc1 (racemic) [505 + 506] | – | >1000 ppm | – |
| CSC1=NC(C)(c2ccc(F)cc2)C(=O)N1Nc1ccccc1 (racemic) [511 + 512] | – | 110 ppm | – |
| CSC1=NC(C)(c2ccc(F)cc2)C(=O)N1Nc1cccc(F)c1 (racemic) [513 + 514] | – | 110 ppm | – |
| COC1=NC(C)(c2ccc(F)cc2)C(=O)N1Nc1ccccc1 (racemic) [525 + 526] | – | 110 ppm | – |
| COC1=NC(C)(c2ccc(F)cc2)C(=O)N1Nc1cccc(F)c1 (racemic) [527 + 528] | – | 37 ppm | – |
| COC1=NC(C)(c2ccc(F)cc2)C(=O)N1Nc1ccccc1 (single isomer, unassigned) [Compound 525] | – | 37 ppm | – |
| COC1=NC(C)(c2ccc(F)cc2)C(=O)N1Nc1ccccc1 (single isomer, unassigned) [Compound 526] | – | >1000 ppm | – |
| COC1=NC(C)(c2ccc(F)cc2)C(=O)N1Nc1cccc(F)c1 (single isomer, unassigned) [Compound 527] | – | 4-12 ppm | – |
| CSC1=NC(C)(c2ccccc2)C(=S)N1Nc1ccccc1 (stereo not drawn) [Compound 1, 4-methyl-2-methylthio-4-phenyl-1-phenylamino-2-imidazoline-5-thione] | 127 | – | – |
| CSC1=NC(C)(c2ccccc2)C(=O)N1Nc1ccccc1 (stereo not drawn) [Compound 9, 4-methyl-2-methylthio-4-phenyl-1-phenylamino-2-imidazolin-5-one] | – | – | inhibition at 20 ppm [1]: 80 to 100%; inhibition at 20 ppm (Pythium vexans): 80 to 100%; inhibition at 20 ppm (Pythium rostratum): 80 to 100% |
| CSC1=NC(C)(c2ccccc2)C(=O)N1N(C)c1ccccc1 (stereo not drawn) [Compound 22, 4-methyl-1-(N-methyl-N-phenylamino)-2-methylthio-4-phenyl-2-imidazolin-5-one] | 124 | – | inhibition at 20 ppm (Pythium vexans): 80 to 100%; inhibition at 20 ppm (Pythium rostratum): 80 to 100%; inhibition at 20 ppm (Alternaria alternata): 80 to 100% |

| SMILES | melting point [°C] | IC75 (ppm) (Phytophthora infestans) | also measured |
| --- | --- | --- | --- |
| CSC1=NC(C)(c2ccccc2)C(=O)N1N(C(C)=O)c1ccccc1 (stereo not drawn) [Compound 23, 4-methyl-1-(N-acetyl-N-phenylamino)-2-methylthio-4-phenyl-2-imidazolin-5-one] | 132 | – | – |
| CSC1=NC(C)(c2ccccc2)C(=O)N1Cc1ccccc1 (stereo not drawn) [Compound 34, 1-benzyl-4-methyl-2-methylthio-4-phenyl-2-imidazolin-5-one] | – | – | inhibition at 20 ppm (Pythium vexans): 80 to 100%; inhibition at 20 ppm (Pythium rostratum): 80 to 100% |
| CCC1(c2ccccc2)N=C(SC)N(Nc2ccccc2)C1=O (stereo not drawn) [Compound 48, 4-ethyl-2-methylthio-4-phenyl-1-phenylamino-2-imidazolin-5-one] | 147 | – | – |
| CSC1=NC2(CCCc3ccccc32)C(=O)N1Nc1ccccc1 (stereo not drawn) [Compound 97] | 158 | – | – |
| CSC1=NC2(CCc3ccccc32)C(=O)N1Nc1ccccc1 (stereo not drawn) [Compound 98] | 85 | – | – |
| CSC1=NC2(CCCc3ccccc32)C(=O)N1Nc1ccccc1Cl (stereo not drawn) [Compound 104] | 168 | – | – |
| CC1=NC(C)(c2ccccc2)C(=O)N1Nc1ccccc1 (stereo not drawn) [Compound 201, 2,4-dimethyl-4-phenyl-1-phenylamino-2-imidazolin-5-one] | 135 | – | – |
| COC1=NC2(CCCc3ccccc32)C(=O)N1Nc1ccccc1 (stereo not drawn) [Compound 407] | – | – | pest or weed control at 1000 µg/mL (Plasmopara viticola): ≥ 75%; pest or weed control at 1000 µg/mL (Puccinia recondita): ≥ 75% |
| COC1=NC2(CCc3ccccc32)C(=O)N1Nc1ccccc1 (stereo not drawn) [Compound 410] | – | – | pest or weed control at 1000 µg/mL (Plasmopara viticola): ≥ 75%; pest or weed control at 1000 µg/mL (Puccinia recondita): ≥ 75% |
| COC1=NC(C)(c2cccs2)C(=O)N1Nc1ccccc1 (stereo not drawn) [Compound 486] | – | – | pest or weed control at 1000 µg/mL (Plasmopara viticola): ≥ 75%; pest or weed control at 1000 µg/mL (Puccinia recondita): ≥ 75% |
| CSC1=N[C@@](C)(c2ccccc2)C(=O)N1Nc1ccccc1 [Compound 501, (+)-(4S)-4-methyl-2-methylthio-4-phenyl-1-phenylamino-2-imidazolin-5-one] | – | 37 ppm | – |
| CSC1=NC(C)(c2ccccc2)C(=O)N1Nc1ccccc1 (stereo not drawn) [Compound 502] | – | >1000 ppm | – |
| COC1=N[C@@](C)(c2ccccc2)C(=O)N1Nc1ccccc1 [Compound 503, (+)-(4S)-4-methyl-2-methoxy-4-phenyl-1-phenylamino-2-imidazolin-5-one] | 132 | 110 ppm | – |
| COC1=NC(C)(c2ccccc2)C(=O)N1Nc1ccccc1 (stereo not drawn) [Compound 504] | 132 | >1000 ppm | – |
| COC1=NC(C)(c2ccc(Br)cc2)C(=O)N1Nc1ccccc1 (stereo not drawn) [Compound 505] | 202 | 37 ppm | – |
| COC1=NC(C)(c2ccc(Br)cc2)C(=O)N1Nc1ccccc1 (stereo not drawn) [Compound 506] | – | >1000 ppm | – |
| CSC1=N[C@@](C)(c2ccc(F)cc2)C(=O)N1Nc1ccccc1 [Compound 511] | – | 12-37 ppm | – |
| CSC1=N[C@@](C)(c2ccc(F)cc2)C(=O)N1Nc1cccc(F)c1 [Compound 513] | – | 37 ppm | – |
